Measurements as given in a melting point compilation (Tetko et al.; mined from patent text by program, amines drawn as free bases though some values may be those of a salt).

| melting point | Structure (SMILES) |
| --- | --- |
| 136 to 137 °C | CC(C)NC(=O)c1ccc2[nH]cc(CCNC(=O)OCc3ccccc3)c2c1 |
| 164 to 166 °C | CCCn1c(=O)c2c(NC)n(C(=O)OC)nc2n(Cc2cccc(Cl)c2)c1=O |
| 224 to 228 °C | CC(=O)c1ccc2ccc(C(=O)O)cc2c1 |
| 116 °C | COC(=O)c1cccc(F)c1S(C)(=O)=O |
| 123 to 124 °C | CCOC(=O)c1c(C)nc2c(c1Cl)c1ccccc1n2C |
| 93 to 94 °C | COCCOC(=O)N1c2cc(Cl)ccc2NC(=O)[C@@H]1C |
| 152 to 154 °C | CCOC(=O)c1ccccc1Nc1c([N+](=O)[O-])cc(C(F)(F)F)cc1[N+](=O)[O-] |
| 98 °C | COC(=O)c1cc(-c2ccc(Cl)c(C)c2)n(Cc2ccc(C)cc2)n1 |
| 142 to 143 °C | COc1cccc(C(=O)Nc2ccc3c(c2)CCCC3=O)c1 |
| 218 to 219 °C | COc1ccc(C#Cc2cc(Cl)cc3c2OC(CC(F)(F)F)C(C(=O)O)=C3)cc1 (stereo not drawn) |
| 52 to 53 °C | O=[N+]([O-])c1cc(Br)ccc1-c1ccc(F)cc1F |
| 138 to 140 °C | COC(=O)c1ccc(O)c(C(=O)CC(=O)C=Cc2ccccc2)c1 |
| 78 to 81 °C | CCCCCCC(=O)C=Cc1ccc(OCc2ccccc2)c(OC)c1 |
| 183 to 185 °C | COc1ccc(S(=O)(=O)Nc2ccccc2/C=C/c2ccncc2C)cc1 |
| 197 to 199 °C | CC(=O)On1cc(-c2ccccc2)c(=O)c(-c2ccccc2)c1 |
| 172 to 174 °C | Cc1nc(-n2ccc(OCCC3CC3)cc2=O)sc1C(=O)NCc1ccc(F)cc1 |
| 208 to 210 °C | COCCNc1nc(-n2ccnc2)nc2ccc(C(C)=O)cc12 |
| 88 to 89 °C | CCOC(=O)CCc1ccc(OCc2nc(-c3ccco3)oc2C)c(OC)c1 |
| 221 to 222 °C | COCn1nnc(NC(=O)C2c3ccccc3Oc3ccccc32)n1 |
| 125 °C | CC(=O)CC(=S)Nc1ccccc1 |
| 104 to 106 °C | Cc1cc(-c2ccccc2Cl)nn1C(C)(C)C(=O)N(C)C |
| 174 to 176 °C | COc1ccc(C(NCCc2ccccc2)c2cccc(Nc3c(N)c(=O)c3=O)c2)cc1 (stereo not drawn) |
| 230 to 231 °C | COCCn1cc2c(n1)c(N)nc1ccccc12 |
| 215 to 217 °C | O=C(O)CCc1cccc(-c2nc(=O)c3ccc(F)cc3s2)n1 |

| melting point | Structure (SMILES) |
| --- | --- |
| 204 to 207 °C | O=C1Cc2cc(Cl)cc(Oc3ccccc3F)c2N1 |
| 178 to 179 °C | Fc1ccc(F)c(C=C2CCNc3nc(Br)ccc32)c1 |
| 216 to 218 °C | CSc1nc(-c2ccncc2)nc(=O)n1C |
| 74 to 76 °C | COc1ccc(C)c2nc(Cl)c(C(C)C)cc12 |
| 140 to 143 °C | COC(=O)c1ccc2c(c1)C(=O)C(Cc1cccc(C(=O)O)c1)O2 (stereo not drawn) |
| 190 to 202 °C | O=C(O)CCc1c[nH]c2c(C(=O)c3ccc(Cl)cc3)cccc12 |
| 236 to 238 °C | Cc1cc(C(=O)NCCCCc2ccc(-c3ccc(=O)[nH]n3)cc2)on1 |
| 108 to 109 °C | COC(=O)CCc1cc(N)c(O)c(C(C)(C)C)c1 |
| 69 to 70 °C | COc1ccc2cc(CCC(C)=O)cc(F)c2c1 |
| 128 to 134 °C | COc1ccc2cc(C(C)C(=O)ON(C(N)=O)C(C)c3ccoc3)ccc2c1 (stereo not drawn) |
| 180 °C | CCCCc1nn(Cc2ccc(C#N)cc2)c2ccccc2c1=O |
| 94 to 96 °C | COc1ccc(F)cc1C(C)(C)CC(O)(Cc1ccccn1)C(F)(F)F (stereo not drawn) |
| 151 to 152 °C | O=C1NC(=O)C(CCCc2ccc3oc(Cc4ccc5ccccc5c4)nc3c2)O1 (stereo not drawn) |
| 206 to 207 °C | CCCn1nc2c(N)nc3ccccc3c2c1CCN(CC)C(N)=O |
| 183 °C | Cc1csc2c1c(=O)oc(=O)n2Cc1ccccc1 |
| 131 to 133 °C | COc1cc2c(cc1OC)CN(CCCCNC(=O)c1cc(C)ccc1OCCF)CC2 |
| 193 to 194 °C | O=C(O)c1ccc(NCCOc2cccc3ccccc23)cc1 |
| 92 to 94 °C | CC(=O)Nc1ccc(C)c2c1C(=O)CCC2 |
| 181 to 182 °C | C[C@H]1c2cc(F)ccc2-c2ccc(F)cc2N1S(=O)(=O)c1cccc(O)c1 |
| 149 to 150 °C | CC(=O)C(CCCc1ccccc1)n1cnc2c(=O)[nH]c(Cc3ccc(OC(F)F)c(N)c3)nc21 (stereo not drawn) |
| 86 to 88 °C | COC(=O)Oc1c(C(=O)c2ccc(Cl)cc2Cl)c(C)nn1C |
| > 260 °C | CCc1cc(C(=O)CBr)ccc1O |
| 178 to 179 °C | COc1ccc(S(=O)(=O)n2ccc3ccnc(-c4ccc([N+](=O)[O-])cc4)c32)cc1 |

Second part, the compound before the results:

| Structure (SMILES) | melting point |
| --- | --- |
| CCN1c2ncccc2C(NC)=Nc2c(C)cc(C)nc21 | 128 to 130 °C |
| O=C(O)C1=CC(CF)(CF)Oc2ccc(C(F)(F)F)cc21 | 159 to 161 °C |
| O=C(Nc1ccc(Cl)cc1)C1=C(C(=O)Nc2cc(OC3CCCC3)c(Cl)cc2F)CCCC1 | 221 to 222 °C |
| CCCCCCCCCCCCCCCCOc1cc(CO)cc(CO)c1 | 90 °C |
| Cc1ccc(C(=O)NC(NC(=NC#N)Nc2ccc(Cl)nc2)C(C)(C)C)cc1 (stereo not drawn) | 194 to 196 °C |
| CC(C)(C)OC(=O)N[C@@H](CCl)[C@H](O)CCl | 142 to 145 °C |
| CN1CCC(n2ccc3ccccc32)CC1 | 58 °C |
| CN1CCC(N(C)C(=O)c2ccc(Nc3nccc(Nc4ccc(C(F)(F)F)cc4)n3)cc2)CC1 | 238 to 244 °C |
| Ic1cnc2c(c1)N(Cc1ccccc1)CCN2 | 147 to 148 °C |
| O=C(c1ccc(-c2cc[nH]n2)cc1)N1Cc2cccn2Cc2ccccc21 | 219 to 221 °C |
| Brc1cccc(Nc2nc(OCC3CCCCC3)c3[nH]cnc3n2)c1 | 204 to 207 °C |
| Cn1nnc(-c2cc(-c3ccc(F)cc3)sc2-c2ccc(F)cc2)n1 | 150 to 152 °C |
| CC(C)(C)OC(=O)CC(=O)c1ccc(C#N)cc1 | 82 to 83 °C |
| c1ccc(-c2cc(OCCN3CCOCC3)[nH]n2)cc1 | 100 °C |
| CCc1ccc(C2=NC(C)(C(C)C)C(=O)N2CC=CC(=O)O)nc1 (stereo not drawn) | 53 to 58 °C |
| O=S(=O)(CCCCl)Nc1ccc(N2CCN(c3ccc(OCC(O)(Cn4cncn4)c4ccc(Cl)cc4Cl)cc3)CC2)cc1 (stereo not drawn) | 80 to 81 °C |
| NC(=O)CCCCC1CCCCC1 | 121 to 122 °C |
| CCCCc1nc2cccc(C(=O)OCCO)c2n1Cc1ccc(-c2ccccc2-c2nnn[nH]2)cc1 | 145 to 147 °C |
| CC(=O)OC1CCN(C2c3cc4nonc4cc3OC(C)(C)C2O)C(=O)C1 (stereo not drawn) | 204 to 206 °C |

| Structure (SMILES) | melting point |
| --- | --- |
| O=C(O)CC[C@H](NC(=O)Oc1ccc(N(CCCl)CCCl)cc1)C(=O)O | 87 to 89 °C |
| COc1ccc2c(C3=CCN(C[C@H](O)COc4cccc5[nH]ccc45)CC3)c[nH]c2c1 | 155 to 160 °C |
| C#Cc1ccc(C2=C(C#N)C(=C(C#N)C#N)OC2(C)C)cc1 | 225 °C |
| Cc1noc(NS(=O)(=O)c2ccccc2-c2ccc(-c3ncco3)cc2O)c1C | 111 to 115 °C |
| Cc1ccc(Sc2c(N)cc(C(=O)O)cc2SCc2ccccc2)cc1 | 177 to 179 °C |
| NC(=O)C1CCN(C(=O)CNC(=O)CN2CCCC2=O)CC1 | 217 to 219 °C |
| Cc1nc2c(N)nc3ccccc3c2n1CCCCNC(=O)C1CCCCC1 | 192 to 193 °C |
| COc1cccc2c1C1CN(C)CCN1c1ccccc1C2O (stereo not drawn) | 217 °C |
| Cc1c(F)c(F)c(C(=O)NC2CCCCC2C)c(F)c1F (stereo not drawn) | 202 to 204 °C |
| C=CCN(CC(N)=O)S(=O)(=O)Cc1cccc(C(F)(F)F)c1 | 91 to 92 °C |
| Cc1oc(-c2ccccc2)nc1COc1ccc(CON=C(CCCCCCC(=O)O)c2ccc(Cl)cc2)cc1 | 54 to 57 °C |
| O=[N+]([O-])c1ccc(N2C3C4CCC(C4)C32)c2nnoc12 (stereo not drawn) | 132 to 133 °C |
| Fc1cccc(-c2ccc3nncn3n2)c1 | 159 to 161 °C |
| CCOC(=O)C(C=C(C)CP(=O)(OCCCl)OCCCl)NC=O (stereo not drawn) | 47 to 49 °C |
| CCOC(=S)c1cc(C)c(Br)cc1N | 48 to 50 °C |
| N#Cc1cccnc1N1CCN(CC(=O)Nc2ccccc2C(F)(F)F)CC1 | 143 to 145 °C |
| CCOC(=O)N1CCC(=C2c3ccccc3CCn3c(C(=O)O)cnc32)CC1 | 182 °C |
| CCCCCCCCCCCCCCCCN[C@H](C(=O)N[C@H](C(=O)O)C(C)C)C(C)C | 120 to 123 °C |
| C/C(=C(\C#N)C(N)=S)N1CCC(Cc2ccccc2)CC1 | 151 to 154 °C |

| Structure (SMILES) | melting point |
| --- | --- |
| O=C(c1cccnc1)N1CCC(c2ccc(F)cc2)=N1 | 128 to 130 °C |
| CC(C)C(C)(C(N)=O)N1C(=O)C=CC1=O (stereo not drawn) | 138 to 140 °C |
| CC(C)(O)CCNC(=O)c1nn(C2CCCCO2)cc1NC(=O)c1ccccn1 (stereo not drawn) | 138 to 139 °C |
| CC(=O)NC(CCc1ccc(C(O)CCCCCCc2ccccc2)cc1)(CO[Si](C)(C)C(C)(C)C)CO[Si](C)(C)C(C)(C)C (stereo not drawn) | 121 to 122 °C |
| CN(C)C=Nc1cccc2nc(N3CCN(C)CC3)c(N3CCN(C)CC3)nc12 | 183 to 186 °C |
| Cc1cc(-c2c(Cl)ccc(C(=O)c3cnn(C)c3O)c2Cl)on1 | 143 to 144 °C |
| CC1(C)CC(=O)c2c(Oc3ccccc3)sc(-c3cc[nH]n3)c2C1 | 232 to 234 °C |
| COc1ccc(C2CNCc3ccc(C)cc32)cc1OC (stereo not drawn) | 94 to 96 °C |
| CC1=C(c2ccccc2)C(c2ccccc2Cl)C([N+](=O)[O-])=C(C)N1 (stereo not drawn) | 232 °C |
| O=Cc1cnc(Nc2n[nH]c3ccc(-c4ncccc4Cl)cc23)s1 | 223 to 224 °C |
| CN(C(=S)c1ccc([N+](=O)[O-])cc1)C1CCN(C2CCCCC2)C1 (stereo not drawn) | 108 to 110 °C |
| CC(C)NC(=O)Nc1ccc([N+](=O)[O-])cc1O | 160 to 161 °C |
| COc1cccc(C=C2c3ccccc3CCc3ccccc32)c1F | 149 °C |
| CCOC(=O)c1cc(S)n2nc(C)nc2n1 | 234 to 236 °C |
| CCc1cccc2oc(C(=O)Nc3ccc(-c4ccc(S(=O)(=O)NC(C(=O)OC)C(C)C)cc4)cc3)c(C)c12 (stereo not drawn) | 183 to 185 °C |
| O=C1c2ccccc2S(=O)(=O)N1CS(=O)(=O)c1c(Cl)cccc1Cl | 201 to 203 °C |
| O=C1OC2CCSC2Cn2cccc21 (stereo not drawn) | 167 to 168 °C |
| O=C(O)c1ccc(-c2nc(-c3cccc(C(F)(F)F)c3)co2)cc1 | 253 to 254 °C |
